In PMC7182988 (Saudi Journal of Biological Sciences, 2020):
“Also recorded” adds a separate entry of the source. Like-named read-outs stand apart in the source and are kept apart here.

Legend:
[1] = system: LPS-induced TNF-α in WI-38 fibroblast cells; test: ELISA assay for TNF-α release in LPS-stimulated cells; assay type: cell-based; conditions: for TNF-α (pg/ml)% (percentage of inhibition of TNF-α): WI-38 cells, test compounds 10 µM, LPS 0.5 µg/mL, LPS alone = 100; for inhibition of TNF-α release (in words): LPS-stimulated WI-38 fibroblast cells
[2] = molecular target: T1, human recombinant COX-2 (Homo sapiens, UniProt P35354); test: COX-2; assay type: biochemical; conditions: for COX-2% (percentage of inhibition of COX-2): at 40 μg/mL; for inhibition at 40 µg/mL: read-out: COX-2% (percentage of inhibition of COX-2)
T1 sequence (P35354 18-604): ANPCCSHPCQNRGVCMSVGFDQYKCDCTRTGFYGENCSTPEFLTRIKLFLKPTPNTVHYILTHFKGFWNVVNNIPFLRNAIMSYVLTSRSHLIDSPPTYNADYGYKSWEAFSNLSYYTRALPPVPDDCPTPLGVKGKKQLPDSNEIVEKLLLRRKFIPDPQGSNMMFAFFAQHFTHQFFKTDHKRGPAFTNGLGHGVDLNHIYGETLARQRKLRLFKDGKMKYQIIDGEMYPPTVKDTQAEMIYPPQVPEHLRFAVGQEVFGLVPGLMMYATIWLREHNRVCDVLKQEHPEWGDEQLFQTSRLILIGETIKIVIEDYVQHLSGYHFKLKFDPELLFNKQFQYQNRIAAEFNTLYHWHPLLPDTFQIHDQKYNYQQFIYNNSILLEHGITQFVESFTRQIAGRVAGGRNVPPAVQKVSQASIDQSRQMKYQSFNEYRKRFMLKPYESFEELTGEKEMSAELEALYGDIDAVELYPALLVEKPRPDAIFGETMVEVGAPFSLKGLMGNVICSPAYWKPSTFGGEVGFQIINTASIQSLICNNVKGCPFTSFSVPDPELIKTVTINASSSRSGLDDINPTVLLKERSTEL

[3] = molecular target: human recombinant COX-1 (Homo sapiens, UniProt P23219); test: COX-1; assay type: biochemical; conditions: for COX-1% (percentage of inhibition of COX-1): at 40 μg/mL; for Selectivity IC50 COX-1/IC50 COX-2: defined as IC50 COX-1/IC50 COX-2; for inhibition at 40 µg/mL: read-out: COX-1% (percentage of inhibition of COX-1)
[4] = system: LPS-induced IL-6 in WI-38 fibroblast cells; test: ELISA assay for IL-6 release in LPS-stimulated cells; assay type: cell-based; conditions: for IL-6 (pg/ml)% (percentage of inhibition of IL-6): WI-38 cells, test compounds 10 µM, LPS 0.5 µg/mL, LPS alone = 100; for inhibition of IL-6 release (in words): LPS-stimulated WI-38 fibroblast cells
[5] = read-out: COX-2 IC50 (μM ± SD), mean ± SD of triplicate experiments
[6] = read-out: COX-1 IC50 (μM ± SD), mean ± SD of triplicate experiments

human recombinant COX-1, sequence (P23219 24-599): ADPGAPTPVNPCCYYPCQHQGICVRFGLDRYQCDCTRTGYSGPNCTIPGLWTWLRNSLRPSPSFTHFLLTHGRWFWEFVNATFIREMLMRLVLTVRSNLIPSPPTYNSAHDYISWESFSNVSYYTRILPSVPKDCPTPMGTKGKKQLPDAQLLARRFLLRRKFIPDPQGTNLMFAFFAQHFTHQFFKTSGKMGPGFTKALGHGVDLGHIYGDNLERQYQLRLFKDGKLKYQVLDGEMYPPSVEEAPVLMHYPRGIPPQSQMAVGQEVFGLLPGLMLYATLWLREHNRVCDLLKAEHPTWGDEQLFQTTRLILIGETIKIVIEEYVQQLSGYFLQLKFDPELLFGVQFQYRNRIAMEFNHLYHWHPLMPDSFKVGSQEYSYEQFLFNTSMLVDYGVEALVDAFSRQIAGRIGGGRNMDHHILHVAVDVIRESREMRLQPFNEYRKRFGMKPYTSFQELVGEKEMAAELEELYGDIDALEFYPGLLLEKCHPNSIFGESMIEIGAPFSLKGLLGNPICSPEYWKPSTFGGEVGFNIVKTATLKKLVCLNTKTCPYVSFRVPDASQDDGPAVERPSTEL

| SMILES | Selectivity IC50 COX-1/IC50 COX-2 [3] [%] | IC50 [2] [µM] | inhibition at 40 µg/mL [2] [%] | IC50 [3] [µM] | inhibition at 40 µg/mL [3] [%] | also measured |
| --- | --- | --- | --- | --- | --- | --- |
| CC(=O)O[C@@H]1CC[C@@]2(C)[C@@H](CC[C@]3(C)[C@@H]2C(=O)C=C2[C@@H]4[C@@H](C)[C@H](C)CC[C@]4(C)CC[C@]23C)[C@@]1(C)C(=O)O [Acetyl-keto boswellic acid, reference compound] | 10 |  |  |  |  | TNF-α (pg/ml)% (percentage of inhibition of TNF-α) [1]: 18.76%; COX-2% (percentage of inhibition of COX-2) [2]: 19.87%; IC50 [2, 5]: 82.52 ± 0.62 µM; COX-1% (percentage of inhibition of COX-1) [3]: 71.42%; IC50 [3, 6]: 7.84 ± 0.13 µM; IL-6 (pg/ml)% (percentage of inhibition of IL-6) [4]: 7.31% |
| CC(=O)O[C@@H]1CC[C@@]2(C)[C@@H](CC[C@]3(C)[C@@H]2CC=C2[C@@H]4CC(C)(C)CC[C@]4(C)CC[C@]23C)[C@@]1(C)C(=O)O [Acetyl-α-boswellic acid, reference compound] | 10 |  |  |  |  | TNF-α (pg/ml)% (percentage of inhibition of TNF-α) [1]: 14.87%; COX-2% (percentage of inhibition of COX-2) [2]: 7.98%; IC50 [2, 5]: > 100 µM; COX-1% (percentage of inhibition of COX-1) [3]: 69.81%; IC50 [3, 6]: 10.1 ± 0.17 µM; IL-6 (pg/ml)% (percentage of inhibition of IL-6) [4]: 15.73% |
| CC(=O)O[C@@H]1CC[C@@]2(C)[C@@H](CC[C@]3(C)[C@@H]2CC=C2[C@@H]4[C@@H](C)[C@H](C)CC[C@]4(C)CC[C@]23C)[C@@]1(C)C(=O)O [Acetyl-β-boswellic acid, reference compound] | 11 |  |  |  |  | TNF-α (pg/ml)% (percentage of inhibition of TNF-α) [1]: 19.87%; COX-2% (percentage of inhibition of COX-2) [2]: 14.87%; IC50 [2, 5]: 72.52 ± 0.51 µM; COX-1% (percentage of inhibition of COX-1) [3]: 75.73%; IC50 [3, 6]: 8.16 ± 0.1 µM; IL-6 (pg/ml)% (percentage of inhibition of IL-6) [4]: 11.42% |
| Cc1ccc(-c2cc(C(F)(F)F)nn2-c2ccc(S(N)(=O)=O)cc2)cc1 [Celecoxib, reference compound] |  |  |  |  |  | IL-6 (pg/ml)% (percentage of inhibition of IL-6) ([4]; 10 µM): 24.77% |
| O=C(c1ccccc1)C1C(c2cc3ccccc3o2)C2CSCN2[C@@]12C(=O)Nc1ccc(Cl)cc12 (stereo partly drawn) [Compound 5a, (3S)-7'-(Benzofuran-2-yl)-6'-benzoyl-5-chloro-1',6',7',7a'-tetrahydro-3'H-spiro[indoline-3,5'-pyrrolo[1,2-c]thiazol]-2-one] | 23 | 88.1 ± 1.78 | 11.2 | 20.4 ± 0.55 | 57.4 |  |
| O=C(c1ccc(F)cc1)C1C(c2cc3ccccc3o2)C2CSCN2[C@@]12C(=O)Nc1ccc(Cl)cc12 (stereo partly drawn) [Compound 5c, (3S)-7'-(Benzofuran-2-yl)-5-chloro-6'-(4-fluorobenzoyl)-1',6',7',7a'-tetrahydro-3'H-spiro[indoline-3,5'-pyrrolo[1,2-c]thiazol]-2-one] | 49 | 76.2 ± 1.46 | 8.33 | 37 ± 1.54 | 40.8 |  |
| O=C(c1ccc(F)cc1)C1C(c2cc3ccccc3o2)C2C3CCCCC3CN2[C@@]12C(=O)Nc1ccc(Cl)cc12 (stereo partly drawn) [Compound 5d, (3S)-1'-(benzofuran-2-yl)-5-chloro-2'-(4-fluorobenzoyl)-1',2',5',5a',6',7',8',9',9a',9b'-decahydrospiro-[indoline-3,3'-pyrrolo[2,1-a]isoindol]-2-one] |  |  | 7.77 |  | 19.8 | inhibition of TNF-α release (in words) [1]: markedly inhibited; also recorded: most effective; also recorded: high potency; inhibition of IL-6 release (in words) [4]: markedly inhibited; also recorded: most effective; also recorded: high potency |
| O=C(c1ccc(F)cc1)C1C(c2cc3ccccc3o2)C2C3CCCCC3CN2[C@@]12C(=O)Nc1ccc(Br)cc12 (stereo partly drawn) [Compound 5e, (3S)-1'-(Benzofuran-2-yl)-5-bromo-2'-(4-fluorobenzoyl)-1',2',5',5a',6',7',8',9',9a',9b'-decahydrospiro-[indoline-3,3'-pyrrolo[2,1-a]isoindol]-2-one] |  |  | 1.8 |  | 9.43 | inhibition of TNF-α release (in words) [1]: markedly inhibited; also recorded: most effective; also recorded: high potency; inhibition of IL-6 release (in words) [4]: markedly inhibited; also recorded: most effective; also recorded: high potency |
| O=C(c1ccc(Br)cc1)C1C(c2cc3ccccc3o2)C2C3CCCCC3CN2[C@@]12C(=O)Nc1ccc(Cl)cc12 (stereo partly drawn) [Compound 5f, (3S)-1'-(Benzofuran-2-yl)-2'-(4-bromobenzoyl)-5-chloro-1',2',5',5a',6',7',8',9',9a',9b'-decahydrospiro-[indoline-3,3'-pyrrolo[2,1-a]isoindol]-2-one] |  |  | 5.92 |  | 32.1 | inhibition of TNF-α release (in words) [1]: markedly inhibited; also recorded: most effective; also recorded: high potency; inhibition of IL-6 release (in words) [4]: markedly inhibited; also recorded: most effective; also recorded: high potency |
| O=C(c1ccc(Br)cc1)C1C(c2cc3ccccc3o2)C2C3CCCCC3CN2[C@@]12C(=O)Nc1ccc(Br)cc12 (stereo partly drawn) [Compound 5g, (3S)-1'-(Benzofuran-2-yl)-5-bromo-2'-(4-bromobenzoyl)-1',2',5',5a',6',7',8',9',9a',9b'-decahydrospiro-[indoline-3,3'-pyrrolo[2,1-a]isoindol]-2-one] |  |  | 2.76 |  | 19.8 | inhibition of TNF-α release (in words) [1]: markedly inhibited; also recorded: most effective; also recorded: high potency; inhibition of IL-6 release (in words) [4]: markedly inhibited; also recorded: most effective; also recorded: high potency |
| O=C(c1ccc(Br)cc1)C1C(c2cc3ccccc3o2)C2CSCN2[C@@]12C(=O)Nc1ccc(Br)cc12 (stereo partly drawn) [Compound 5h, (3S)-7'-(Benzofuran-2-yl)-5-bromo-6'-(4-bromobenzoyl)-1',6',7',7a'-tetrahydro-3'H-spiro[indoline-3,5'-pyrrolo[1,2-c]thiazol]-2-one] | 42 | 84.7 ± 1.16 | 9.8 | 35.7 ± 0.51 | 41.7 |  |
| O=C(c1ccc(Br)cc1)C1C(c2cc3ccccc3o2)C2CSCN2[C@@]12C(=O)Nc1ccc(Cl)cc12 (stereo partly drawn) [Compound 5i, (3S)-7'-(Benzofuran-2-yl)-6'-(4-bromobenzoyl)-5-chloro-1',6',7',7a'-tetrahydro-3'H-spiro[indoline-3,5'-pyrrolo[1,2-c]thiazol]-2-one] | 41 | 71.2 ± 1.29 | 17.9 | 29.55 ± 0.19 | 44.5 |  |
| O=C(c1ccc(C(F)(F)F)cc1)C1C(c2cc3ccccc3o2)C2C3CCCCC3CN2[C@@]12C(=O)Nc1ccc(Br)cc12 (stereo partly drawn) [Compound 5k, (3S)-1'-(Benzofuran-2-yl)-5-bromo-2'-(4-(trifluoromethyl)benzoyl)-1',2',5',5a',6',7',8',9',9a',9b'-decahydro-spiro[indoline-3,3'-pyrrolo[2,1-a]isoindol]-2-one] |  |  | 4.45 |  | 12.3 | inhibition of TNF-α release (in words) [1]: markedly inhibited; also recorded: most effective; also recorded: high potency; inhibition of IL-6 release (in words) [4]: markedly inhibited; also recorded: most effective; also recorded: high potency |
| O=C(c1ccc(C(F)(F)F)cc1)C1C(c2cc3ccccc3o2)C2CSCN2[C@@]12C(=O)Nc1ccc(Cl)cc12 (stereo partly drawn) [Compound 5l, (3S)-7'-(Benzofuran-2-yl)-5-chloro-6'-(4-(trifluoromethyl)benzoyl)-1',6',7',7a'-tetrahydro-3'H-spiro-[indoline-3,5'-pyrrolo[1,2-c]thiazol]-2-one] |  | 58.8 ± 1.58 | 19.8 | 31.25 ± 0.24 | 47.7 |  |
| O=C(c1ccc(Cl)cc1)C1C(c2cc3ccccc3o2)C2CSCN2[C@@]12C(=O)Nc1ccc(Cl)cc12 (stereo partly drawn) [Compound 5p, (3S)-7'-(Benzofuran-2-yl)-5-chloro-6'-(4-chlorobenzoyl)-1',6',7',7a'-tetrahydro-3'H-spiro[indoline-3,5'-pyrrolo[1,2-c]thiazol]-2-one] | 45 | 85.7 ± 1.51 | 9.98 | 38.2 ± 0.96 | 52.8 |  |
| COc1ccc2c(c1)c(CC(=O)O)c(C)n2C(=O)c1ccc(Cl)cc1 [Indomethacin, reference compound] |  |  |  |  | 87.3 |  |
| C[C@H]1[C@H](C)CC[C@]2(C)CC[C@]3(C)C(=CC[C@@H]4[C@@]5(C)CC[C@@H](O)[C@](C)(C(=O)O)[C@@H]5CC[C@]43C)[C@H]12 [β-Boswellic acid, reference compound] | 18 | > 100 | 7.66 | 18.1 ± 0.42 | 64.8 |  |
